According to patent US10639295B2 (priority 2016, dated 2020):
Where two headings read alike, the source gives them in different places. Values belong to the compound of their own block, whether it stands above or below them.

Experiments:
[1] = test system: mouse melanoma B16 cells; assay type: in vivo, C57BL/6 mice; details: intravenous injection, equimolar to 5.00 mg/kg 4′-demethylepipodophyllotoxin; for curative effect on lung metastatic tumor: 22nd day after modeling; for tumor-bearing lung weight / number of lung metastasis tumor nodules: sacrificed on the 22nd day; for tumor-bearing lung weight: compared with control group (FIG. 3); for number of lung metastasis tumor nodules: compared with control group (FIG. 4)
Method: The experiment was performed according to the method reported by Small, 2014(3):524-535. C57BL/6 mice (male, 20±2 g, 6 to 8 week-old) were used and intravenously injected with mouse melanoma B16 cells in logarithmic growth phase. 5×10^5 cells were injected into each mouse to establish a melanoma lung metastasis model, and the mice were randomly divided into 5 groups (recorded as the 0th day). The injections for intravenous injecting used in the experiment were prepared according to Example 6. On the 4th, 7th and 13th day after the modeling, each group was subjected to intravenous injection for […]. 4′-demethylepipodophyllotoxin was provided at a dosage of 5.00 mg/kg, and etoposide, compound DC and compound DP were provided at equimolar amount with 4′-demethylepipodophyllotoxin, and the administration dosages were etoposide 7.36 mg/kg, compound DC 7.89 mg/kg, and compound DP 7.69 mg/kg, respectively. The control group was administered with equal amount of solvent. All mice were housed normally and sacrificed on the 22nd day after modeling. The lung tissue was immediately separated out, washed with physiological saline and weighed, and the number of tumor nodules was calculated.

[2] = for concentration in the lung compared with 4′-demethylepipodophyllotoxin original drug group and etoposide control group: 5 minutes after administration by tail intravenous injection (FIG. 1); for time for which a relatively high drug concentration in the lung lasted (retention time in the lung): after tail intravenous injection; for drug concentration in the lung compared with 4′-demethylepipodophyllotoxin original drug group and etoposide control group: at each time point after tail intravenous injection (FIG. 2); for lung relative uptake rate Re (AUC0-t,lung compound / AUC0-t,lung drug) / peak concentration ratio Ce in the lung (Cmax,lung compound / Cmax,lung drug): versus 4′-demethylepipodophyllotoxin original drug group; for lung relative uptake rate Re (AUC0-t,lung compound / AUC0-t,lung drug) / peak concentration ratio Ce in the lung (Cmax,lung compound / Cmax,lung drug) / lung relative uptake rate Re (AUC0-t,lung compound / AUC0-t,lung control) / peak concentration ratio Ce in the lung (Cmax,lung compound / Cmax,lung control): tail intravenous injection; for lung relative uptake rate Re (AUC0-t,lung compound / AUC0-t,lung drug) / lung relative uptake rate Re (AUC0-t,lung compound / AUC0-t,lung control) / peak concentration ratio Ce in the lung (Cmax,lung compound / Cmax,lung control): equimolar doses; for peak concentration ratio Ce in the lung (Cmax,lung compound / Cmax,lung drug): equimolar to 10.00 mg/kg 4′-demethylepipodophyllotoxin; for lung relative uptake rate Re (AUC0-t,lung compound / AUC0-t,lung control) / peak concentration ratio Ce in the lung (Cmax,lung compound / Cmax,lung control): versus etoposide control group
Method: 16 mg of 4′-demethylepipodophyllotoxin was accurately weighed, 5% DMSO, 20% polyethylene glycol 400 and 20% absolute ethanol were added to help dissolution, so as to prepare an injection for intravenous injection with a concentration of 2 mg/mL. 28 mg of etoposide was accurately weighed, and 5% DMSO, 20% polyethylene glycol 400 and 20% absolute ethanol were added to help dissolution, so as to prepare an injection for intravenous injection with a concentration of 3.5 mg/mL. 30.40 mg of compound DC or DP was accurately weighed, and 5% DMSO, 20% polyethylene glycol 400 and 20% absolute ethanol were added to help dissolution, so as to prepare an injection for intravenous injection with a concentration of 3.8 mg/mL.
200 Kunming mice (male, 20±2 g) were used, which were fasted for 12 h before the experiment and given free access to water. In the experiment, they were randomly divided into 4 groups and administered by tail intravenous injection. The administration of 4′-demethylepipodophyllotoxin was carried out with a dosage of 10.00 mg/kg. Etoposide, compound DC and compound DP were administered in equimolar amount as 4′-demethylepipodophyllotoxin, and the administration dosages were etoposide 14.71 mg/kg, compound DC 15.78 mg/kg, and compound DP 15.38 mg/kg, respectively. 5 minutes, 15 minutes, 30 minutes, 1 hour, 2 hours, 4 hours, 8 hours, 12 hours, 24 hours and 48 hours after administration, the blood was collected and the mice sacrificed in all groups. The whole blood was put into sodium heparin-containing EP tubes, centrifuged at 5000 rpm at 4° C. for 5 min, and the upper plasma was collected and frozen at −40° C. for use. The hearts, livers, spleens, lungs, kidneys, brains and pancreas of the mice were immediately separated, and the residual blood was washed away with physiological saline. The remaining water on the surfaces of the organs was absorbed with filter papers. The organs were weighed and physiological saline 2 times the volume of the organs was added for homogenization.
0.1 mL of mouse plasma and 0.1 mL of tissue homogenate were taken and put into a 0.5 mL EP tube, 0.3 mL of methanol was added to all the samples as a protein precipitant. The sample was subjected to vortex vibration for 5 minutes, and then centrifuged at 13000 rpm at 4° C. for 10 min. The supernatant was taken and filtered with a 0.22 μm organic filtration membrane, and 1 μL of the sample was taken and subjected to LC-MS/MS analysis.
LC-MS/MS Analysis Condition
Liquid phase conditions: Agilent 1200 Series High Resolution Rapid LC System (RRLC); chromatographic column: Agilent Diamonsil ODS column (50 mm×4.6 mm, 1.8 μm); mobile phase: for 4′-demethylepipodophyllotoxin, methanol:0.1% formic acid aqueous solution=50:50, for etoposide, acetonitrile:0.1% formic acid aqueous solution=35:65, for compound DC, methanol:0.1% formic acid aqueous solution=[…], and for compound DP, methanol:0.1% formic acid aqueous solution=34:66; flow rate: 0.4 mL/min; column temperature: 30° C.; and injection volume: 1 μL.
Mass spectra conditions: Agilent Triple Quadrupole Mass Spectrometry (6410B); the analytes were subjected to a multiple reaction monitoring (MRM) in positive mode: for 4′-demethylepipodophyllotoxin, etoposide, compound DC and compound DP, fragmentation voltages were 97 V, 148 V, 190 V and 169 V, respectively; collision cell voltages were 20 V, 12 V, 52 V and 36 V, respectively; and ionic reactions (m/z) were 401.1→185, 589.2→229, 632.3→86.1 and 616.3→58.1, respectively; drying gas temperature: 350° C.; drying gas flow rate: 10 L/min; atomization air pressure: 30 psi; and the capillary voltage: 4000V.
Each pharmacokinetic parameters were calculated by DAS3.2.5 software, and the formula for calculating the targeting ability evaluation index, i.e., peak concentration ratio Ce and relative uptake rate Re, were shown hereinafter. Celung=(Cmax,lung)compound/(Cmax,lung)drug or control Relung=(AUC0-t,lung)compound/(AUC0-t,lung)drug or control

SMILES: COc1cc(C2c3cc4c(cc3C(O)C3COC(=O)C23)OCO4)cc(OC)c1O (stereo not shown) [4′-demethylepipodophyllotoxin, reference compound]
- curative effect on lung metastatic tumor [1]: improved the lung metastatic tumor to a certain degree
- tumor-bearing lung weight [1]: reduced the tumor-bearing lung weight
- number of lung metastasis tumor nodules [1]: decreases the number of lung metastasis tumor nodules
- concentration in the lung ([2]; one hour after the administration, tail intravenous injection 10.00 mg/kg): below the detectable limit

SMILES: COc1cc([C@@H]2c3cc4c(cc3[C@@H](NC(=O)c3ccc(CN(C)CCCN(C)C)cc3)[C@H]3COC(=O)[C@H]23)OCO4)cc(OC)c1O [compound DC]
- curative effect on lung metastatic tumor [1]: best curative effects
- tumor-bearing lung weight [1]: least
- number of lung metastasis tumor nodules [1]: least
- concentration in the lung compared with 4′-demethylepipodophyllotoxin original drug group and etoposide control group [2]: much higher
- time for which a relatively high drug concentration in the lung lasted (retention time in the lung) [2]: up to 48 hours
- drug concentration in the lung compared with 4′-demethylepipodophyllotoxin original drug group and etoposide control group [2]: much higher
- lung relative uptake rate Re (AUC0-t,lung compound / AUC0-t,lung drug) [2]: 168.38 times
- peak concentration ratio Ce in the lung (Cmax,lung compound / Cmax,lung drug) [2]: 5.29 times
- lung relative uptake rate Re (AUC0-t,lung compound / AUC0-t,lung control) [2]: 98.16 times
- peak concentration ratio Ce in the lung (Cmax,lung compound / Cmax,lung control) [2]: 4.54 times

SMILES: COc1cc([C@@H]2c3cc4c(cc3[C@@H](NC(=O)c3ccc(CN5CCN(C)CC5)cc3)[C@H]3COC(=O)[C@H]23)OCO4)cc(OC)c1O [compound DP]
- curative effect on lung metastatic tumor [1]: best curative effects
- tumor-bearing lung weight [1]: least
- number of lung metastasis tumor nodules [1]: least
- concentration in the lung compared with 4′-demethylepipodophyllotoxin original drug group and etoposide control group [2]: much higher
- time for which a relatively high drug concentration in the lung lasted (retention time in the lung) [2]: ≤ 12 h
- drug concentration in the lung compared with 4′-demethylepipodophyllotoxin original drug group and etoposide control group [2]: much higher
- lung relative uptake rate Re (AUC0-t,lung compound / AUC0-t,lung drug) [2]: 42.56 times
- peak concentration ratio Ce in the lung (Cmax,lung compound / Cmax,lung drug) [2]: 5.41 times
- lung relative uptake rate Re (AUC0-t,lung compound / AUC0-t,lung control) [2]: 24.81 times
- peak concentration ratio Ce in the lung (Cmax,lung compound / Cmax,lung control) [2]: 4.65 times

- concentration in the lung ([2]; mouse, in vivo, iv, 14.71 mg/kg): below the detectable limit
SMILES: COc1cc([C@@H]2c3cc4c(cc3[C@@H](O[C@@H]3O[C@@H]5CO[C@@H](C)O[C@H]5[C@H](O)[C@H]3O)[C@H]3COC(=O)[C@H]23)OCO4)cc(OC)c1O [etoposide, reference compound]
- curative effect on lung metastatic tumor [1]: improved the lung metastatic tumor to a certain degree
- tumor-bearing lung weight [1]: reduced the tumor-bearing lung weight
- number of lung metastasis tumor nodules [1]: decreases the number of lung metastasis tumor nodules
